The term Ki denotes the dissociation constant of the complex between target and ligand, obtained from inhibition or displacement. As a reminder, the Kd is a measure of binding affinity in units of concentration. Broadly, the ΔTm is the shift of the melting midpoint relative to a reference.

SMILES strings stand for the structures. Calls of active or inactive are those of the source. The rule behind the calls is not given here. Where only a bound is given, the exact number is not on record here.

The target of assay [1] is T1, Bromodomain testis-specific protein (Homo sapiens, UniProt Q58F21). Nature of the assay: Binding affinity to N-terminal hexa histidine-tagged human BRDT BD1 extracted from Escherichia coli BL21 (DE3) cells assessed as inhibition constant incubated for 1 hrs by fluorescence polarization assay. (Fluorescence polarisation rises when a labelled molecule tumbles more slowly, as on binding a larger partner.)

Assay [2] addresses T2, Bromodomain-containing protein 4 (Homo sapiens, UniProt O60885). Nature of the assay: Binding affinity to N-terminal hexa histidine-tagged human BRD4 BD1 extracted from Escherichia coli BL21 (DE3) cells assessed as inhibition constant incubated for 1 hrs by fluorescence polarization assay.
Another assay concerns MM1.S. Put plainly: Downregulation of c-MYC expression in human MM1.S cells measured after 6 hrs by Western blotting analysis. The class given is functional, cell-based. To be noted: dose 0.1-10 µM. Background: Immunoblotting shows a protein as a band on a membrane.
The target in assay [3] is T2, Bromodomain-containing protein 4. Put plainly: Binding affinity to BRD4 BD1 (unknown origin) assessed as dissociation constant by BROMOscan analysis.
The target is the same in assay [4]. Put plainly: Binding affinity to BRD4 BD2 (unknown origin) assessed as dissociation constant by BROMOscan analysis.
The target of assay [5] is T1, Bromodomain testis-specific protein. Nature of the assay: Binding affinity to BRDT BD1 (unknown origin) assessed as dissociation constant by BROMOscan analysis.
Assay [6] shares this target. Put plainly: Binding affinity to BRDT BD2 (unknown origin) assessed as dissociation constant by BROMOscan analysis.
Assay [7] shares this target. Nature of the assay: Binding affinity to BRDT BD2 (unknown origin) at W293 residue.
For assay [8] the target is unchanged. The note with it: dose 100.0 µM, time 30.0 min.
Assay [9] shares this target. The note with it: dose 100.0 µM, time 30.0 min. This is another data set of the same source.

As to `CCn1c2c(c(=O)[nH]c1=O)C1C(=C(C)N2)C(=O)OCc2cccc(c2)OCCCOc2cc1ccc2C` (stereo not drawn), the Ki in assay [1] and in assay [2] was above 3.8 µM each time. As for `CCn1c2c(c(=O)[nH]c1=O)C1C(=C(C)N2)C(=O)OCCCOc2ccccc21` (stereo not drawn), in [1], the inhibition constant (Ki) was determined as 9.2 µM. Turning to `Cc1sc2c(c1C)C(c1ccc(Cl)cc1)=N[C@@H](CC(=O)OC(C)(C)C)c1nnc(C)n1-2`, the Activity result in the assay with MM1.S was “Dose-dependent-effect”. For the compound `CCn1c2c(c(=O)[nH]c1=O)C(c1ccc(C)cc1)C(C(=O)OCc1ccccc1)=C(C)N2` (stereo not drawn), the Kd in assay [3] was determined as 0.38 µM; in [4] it was 0.065 µM; in assay [5], 0.77 µM; in [6] it was 0.067 µM. The inhibition constant Ki in assay [1] was found to be 0.04 µM; in assay [2] it was 0.15 µM. With `CCn1c2c(c(=O)[nH]c1=O)C1C(=C(C)N2)C(=O)OCCCCOc2cc(C)ccc21` (stereo not drawn), the Ki in assay [1] was 1.7 µM. For the compound `CCn1c2c(c(=O)[nH]c1=O)C1C(=C(C)N2)C(=O)OCc2ccccc2OCCCOc2ccccc21` (stereo not drawn), the result in assay [7] was Active. Further, the Ki in assay [1] was determined as 1.1 µM. In addition, the thermal shift (ΔTm) in assay [8] stood at 13 °C; in [9] it was 2.8 °C. Turning to `CCn1c2c(c(=O)[nH]c1=O)C1C(=C(C)N2)C(=O)OCCCOc2cc(C)ccc21` (stereo not drawn), in assay [1], the Ki was found to be 8.1 µM. In the case of `CCn1c2c(c(=O)[nH]c1=O)C1C(=C(C)N2)C(=O)OCc2ccccc2OCCCOc2cc1ccc2C` (stereo not drawn), the Ki in [1] came out at 12 µM. Take `CCn1c2c(c(=O)[nH]c1=O)C1C(=C(C)N2)C(=O)OCc2ccccc2OCCOc2cc(C)ccc21` (stereo not drawn): the Activity result in the assay on MM1.S is “Dose-dependent-effect”. For the same compound, the thermal shift (ΔTm) in assay [8] worked out at 8.9 °C; in assay [9], 3.4 °C. `CCn1c2c(c(=O)[nH]c1=O)C1C(=C(C)N2)C(=O)OCCCCOc2ccccc21` (stereo not drawn): the Ki in assay [1] amounted to 11 µM. Still for that read-out and setting: then `CCn1c2c(c(=O)[nH]c1=O)C1C(=C(C)N2)C(=O)OCc2ccccc2OCCOc2cc1ccc2C` (stereo not drawn), with above 3.8 µM. As for `CCn1c2c(c(=O)[nH]c1=O)C1C(=C(C)N2)C(=O)NCc2ccccc2OCCCOc2ccccc21` (stereo not drawn), the inhibition constant Ki in [1] and in assay [2] was above 3.8 µM each time. For the compound `CCn1c2c(c(=O)[nH]c1=O)C1C(=C(C)N2)C(=O)OCc2ccccc2OCCCOc2cc(C)ccc21` (stereo not drawn), in [1], the inhibition constant Ki is 1.3 µM. In the case of `CCn1c2c(c(=O)[nH]c1=O)C1C(=C(C)N2)C(=O)OCc2ccccc2OCCOc2ccccc21` (stereo not drawn), in [1], the inhibition constant Ki came to 5.3 µM. Take `CCn1c2c(c(=O)[nH]c1=O)C1C(=C(C)N2)C(=O)OCc2ccccc2OCCCCOc2ccccc21` (stereo not drawn): in [1], the Ki is 1.9 µM. `CCn1c2c(c(=O)[nH]c1=O)C1C(=C(C)N2)C(=O)OCc2ccccc2OCCOc2cccc1c2` (stereo not drawn): in assay [1], the Ki was above 3.8 µM.

For the origin of these results see ChEMBL document CHEMBL6177957, “Macrocyclic dihydropyridine analogs as pan-BET BD2-preferred inhibitors” (Eur J Med Chem, 2025).
